Laboratory results published in patent publication US20070185152A1, “Inhibitors of akt activity” (Smithkline Beecham Corporation, priority 2004, published 2007).

Molecular target: T1, AKT1 (Homo sapiens, UniProt P31749)
T1 construct: Insect cells expressing His-tagged AKT1 (aa 136-480) were lysed; His; made in house; host or cells: insect cells
Test: AKT1 kinase inhibition assay (substrate phosphorylation, SPA)
Type: biochemical
Settings: catalytic domain of AKT1; 10 nM activated AKT enzyme, 4 uM ATP, 8 uM peptide, 40 minutes at room temperature
Experimental: Isolation and Purification of His-tagged AKT1 (aa 136-480)
Insect cells expressing His-tagged AKT1 (aa 136-480) were lysed in 25 mM HEPES, 100 mM NaCl, 20 mM imidazole; pH 7.5 using a polytron (5 mLs lysis buffer/g cells). Cell debris was removed by centrifuging at 28,000×g for 30 minutes. The supernatant was filtered through a 4.5-micron filter then loaded onto a nickel-chelating column pre-equilibrated with lysis buffer. The column was washed with 5 column volumes (CV) of lysis buffer then with 5 CV of 20% buffer B, where buffer B is 25 mM HEPES, 100 mM NaCl, 300 mM imidazole; pH 7.5. His-tagged AKT1 (aa 136-480) was eluted with a 20-100% linear gradient of buffer B over 10 CV. […]
Compounds of the present invention are tested for AKT 1, 2, and 3 protein serine kinase inhibitory activity in substrate phosphorylation assays. […] Substrate phosphorylation is detected by the following procedure:
Assays are performed in 384well U-bottom white plates. […] The reaction is stopped by the addition of 50 ul SPA bead mix (Dulbecco's PBS without Mg^2+ and Ca^2+, 0.1% Triton X-100, 5 mM EDTA, 50 uM ATP, 2.5 mg/ml Streptavidin-coated SPA beads.) The plate is sealed, the beads are allowed to settle overnight, and then the plate is counted in a Packard Topcount Microplate Scintillation Counter (Packard Instrument Co., Meriden, Conn.). […]

T1 sequence (P31749 136-480): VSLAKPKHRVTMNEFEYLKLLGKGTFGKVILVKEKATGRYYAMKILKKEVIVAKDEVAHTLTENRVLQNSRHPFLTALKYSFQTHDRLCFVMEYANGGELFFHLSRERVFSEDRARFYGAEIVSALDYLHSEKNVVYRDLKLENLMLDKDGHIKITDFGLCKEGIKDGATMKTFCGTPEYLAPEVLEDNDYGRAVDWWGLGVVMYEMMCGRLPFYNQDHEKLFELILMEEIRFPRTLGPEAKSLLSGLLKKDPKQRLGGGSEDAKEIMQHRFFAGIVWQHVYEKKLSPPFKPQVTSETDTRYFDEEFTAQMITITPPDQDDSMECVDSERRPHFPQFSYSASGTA

## Cc1n[nH]c2ccc(-c3cc(OC[C@@H](N)Cc4ccccc4)cnc3-c3ccccc3)cc12 [Example 1, (S)-1-Benzyl-2-[5-(3-methyl-1H-indazol-5-yl)-6-phenyl-pyridin-3-yloxy]-ethylamine]
  IC50: 182 nM
